Laboratory results reported in patent US20250205205A1, “METHODS AND COMPOSITIONS FOR PREVENTING AND TREATING FIBROSIS AND IMPROVING FUNCTIONAL RECOVERY AFTER INJURY OR WITH AGING” (East Carolina University, priority 2022, published 2025).

Key:
sciatic nerve injury = assay: Pain withdrawal reflex latencies after unilateral sciatic nerve injury and long-term treatment (FIG. 3); assay type: in vivo; settings: unilateral sciatic nerve injury; long-term treatment; PPX 0.5 mg/kg, morphine 1 mg/kg, alone or combined
Excerpt: Filled circles show the reflex data of the injured side of the animal. […] Filled circles show the reflex data of the injured side of the animal. […] Filled circles show the reflex data of the injured side of the animal.

sciatic nerve = assay: Sciatic nerve function: compound action potentials (CAPs) on electrical stimulation after sciatic nerve injury and long-term treatment (FIG. 2); assay type: in vivo; settings: sciatic nerve injury; daily treatments of 100 μl in saline; PPX 0.5 mg/kg, morphine 1 mg/kg, alone or combined; representative animal
Description: FIG. 2 depicts the in vitro effects of different long-term treatments on sciatic nerve function, as assessed by the response profiles of these nerves to electrical stimulation.
The CAP is an indicator of electrical activity in the nerve that is required for normal transmission of sensory information.
The effects in vitro of long-term treatments on sciatic nerve function were assessed by the response profiles of these nerves to electrical stimulation as shown in FIG. 2.

SMILES: CN1CC[C@]23c4c5ccc(O)c4O[C@H]2[C@@H](O)C=C[C@H]3[C@H]1C5 [morphine]
- pain withdrawal reflex latencies of the injured side versus pre-injury data (days −3 to −1) (sciatic nerve injury): did not lead to a recovery of withdrawal latencies to pre-injury data
- compound action potential (CAP) on stimulation of the nerve on the injured side (sciatic nerve): failed to elicit a similarly strong CAP
